In patent US20250197914A1, “MICROBIAL MEDIUM COMPOSITION FOR PRODUCING RETINOL, COMPRISING ANTI-OXIDANT, AND USE THEREOF” (CJ CHEILJEDANG CORPORATION, priority 2022, published 2025):

Test system: retinol-producing strains (Yarrowia lipolytica)
Assay: Flask test of retinol production of retinol-producing strains with antioxidants in the medium
Assay type: cell-based
Details: antioxidant added to YLMM2 medium at 0.01% to 0.05%; 30° C., 200 rpm; 48 hour culture; HPLC
Experimental: A flask test was performed to compare the degree of retinol production of retinol-producing strains according to the presence and absence, and the type of antioxidants. Each retinol production platform strain was inoculated in a 250 ml corner-baffled flask containing 25 ml of Yarrowia lipolytica minimal media2 (YLMM2) at an initial OD of 4, and 4 types of antioxidants, 3,5-Di-tert-4-butylhydroxytoluene (BHT), propyl gallate (PG), vitamin C, and glutathione (GSH), were added to the medium at a concentration of 0.01% to 0.05%, respectively. Culturing was carried out under conditions of 30° C. and 200 rpm.
To evaluate the degree of growth according to culture time, the OD value at a wavelength of 600 nm was measured using a spectrophotometer, and the method of measuring retinol concentrations is as follows; After the culture was completed, 1 ml of the culture medium was centrifuged to remove the supernatant, then 0.5 ml of dimethyl sulfoxide (DMSO, Sigma) was added and the cells were disrupted by agitation at 55° C. for 10 minutes (agitation; 2,000 rpm). Next, 0.5 ml of acetone (Sigma) containing 4% BHT was added and agitated (2,000 rpm) for 15 min at 45° C., and retinoids extracted in this manner were quantitatively analyzed using HPLC equipment.
Considering that the sugar consumption rate may vary depending on the type of antioxidants which were added to the medium, BHT, PG, vitamin C, and GSH were each cultured for 48 hours. After 48 hour-incubation, retinal and retinol were extracted and quantified.

SMILES | retinol concentration increase as compared to the control group without antioxidants
CCCOC(=O)c1cc(O)c(O)c(O)c1 [PG, propyl gallate] | ≤ 1.82 times
Cc1cc(C(C)(C)C)c(O)c(C(C)(C)C)c1 [BHT, 3,5-di-tert-4-butylhydroxytoluene] | up to 1.89 times
N[C@@H](CCC(=O)N[C@@H](CS)C(=O)NCC(=O)O)C(=O)O [GSH, glutathione] | ≤ 1.21 times
O=C1O[C@H]([C@@H](O)CO)C(O)=C1O [vitamin C, ascorbic acid] | ≤ 1.44 times
